From patent US8785614B2, “Aberrantly methylated genes in pancreatic cancer” (The Johns Hopkins University, priority 2003, dated 2014)
Like-named read-outs stand apart in the source and are kept apart here.

Tests used:
[1] = system: four pancreatic cancer cell lines (AsPC1, Hs766T, MiaPaCa2, Panc1)
Procedure: (§1) Mock-treated cells were cultured with the equivalent volume of PBS alone.
(§2) Total RNA was isolated from cultured cells using TRIZOL reagent (invitrogen, Carlsbad, Calif.) and purified using RNeasy Mini Kit (Qiagen, Valencia, Calif.). First- and second-stranded cDNA was synthesized from 10 μg of total RNA using 17-dT) primer (Genset Corp., La Jolla, Calif.) and Superscript Choice system (Invitrogen). Labeled cRNA was synthesized from the purified cDNA by in vitro transcription reaction using the BioArray High Yield RNA Transcript Labeling Kit (Enzo Diagnostics, Inc., Farmingdale, N.Y.) at 37° C. for 6 h. The cRNA was fragmented at 94° C. for 35 min. in a fragmentation buffer [40 mM Tris-acetate @ pH 8.1, 100 mM potassium acestate, and 30 mM magnesium acetate]. The fragmented cRNA was then hybridized to the Human Genome U133A chips (Affymetrix, Santa Clara, Calif.) with 18462 unique gene/EST transcripts at 45° C. for 16 h. The washing and staining procedure was performed in the Affymetrix Fluidics Station according to the manufacturer's instructions. The probes were then scanned using a laser scanner, and signal intensity for each transcript (background-subtracted and adjusted for noise) was calculated using Microarray Suite Software 5.0 (Affymetrix).
(§3) Fold change analysis of signal intensities obtained from oligonucleotide microarrays between the two treatment groups was performed using Data Mining software (Afrymetrix).
(§4) The global changes in gene expression proxies induced by 5Aza-dC in four pancreatic cancer cell lines (AsPCl, Hs766T, MiaPaCa2, and Panel) were determined using the Afrymetrix U133 oligonucleotide microarrays with 18462 probes sets (transcripts) covering over 13000 full-length sequences of known genes.

[2] = system: AsPC1 pancreatic cancer cell line
Procedure: as §1, §2, §3, §4

Nc1ncn([C@H]2C[C@H](O)[C@@H](CO)O2)c(=O)n1 [5Aza-dC, 5 aza 2′ deoxycytidine]
changes in phenotypes during the treatment period [1]: did not result in apparent changes in their phenotypes
Induced by 5Aza-dC alone? ([1]; ADM): No
Induced by 5Aza-dC alone? ([1]; ANGPT1): No
Induced by 5Aza-dC alone? ([1]; AREG): No
Induced by 5Aza-dC alone? ([1]; ATF3): No
Induced by 5Aza-dC alone? ([1]; BIK): No
Induced by 5Aza-dC alone? ([1]; BIK (Table 3)): No
Induced by 5Aza-dC alone? ([1]; BNIP3): Yes
Induced by 5Aza-dC alone? ([1]; BST2): Yes
Induced by 5Aza-dC alone? ([1]; CACNA1G): Yes
Induced by 5Aza-dC alone? ([1]; CAPN5): No
Induced by 5Aza-dC alone? ([1]; CASP5): No
Induced by 5Aza-dC alone? ([1]; CCNA1): No
Induced by 5Aza-dC alone? ([1]; CDC25A): No
Induced by 5Aza-dC alone? ([1]; CDH8): Yes
Induced by 5Aza-dC alone? ([1]; CDKN1C): Yes
Induced by 5Aza-dC alone? ([1]; CDKN2A (p16)): No
Induced by 5Aza-dC alone? ([1]; CGR11): No
Induced by 5Aza-dC alone? ([1]; CHES1): No
Induced by 5Aza-dC alone? ([1]; CHFR): No
Induced by 5Aza-dC alone? ([1]; CLDN7): No
Induced by 5Aza-dC alone? ([1]; CLDN15): No
Induced by 5Aza-dC alone? ([1]; CRIP 1): No
Induced by 5Aza-dC alone? ([1]; CRLF1): No
Induced by 5Aza-dC alone? ([1]; CSF3): No
Induced by 5Aza-dC alone? ([1]; Cdc42 effector protein 2): No
Induced by 5Aza-dC alone? ([1]; DAPK2): No
Induced by 5Aza-dC alone? ([1]; DAZL): Yes
Induced by 5Aza-dC alone? ([1]; DEAD box RNA helicase (VASA)): No
Induced by 5Aza-dC alone? ([1]; EDR1): Yes
Induced by 5Aza-dC alone? ([1]; EGR4): No
Induced by 5Aza-dC alone? ([1]; EREG): No
Induced by 5Aza-dC alone? ([1]; GADD45B): No
Induced by 5Aza-dC alone? ([1]; GAGE1): Yes
Induced by 5Aza-dC alone? ([1]; GAGE2 (Table 2)): No
Induced by 5Aza-dC alone? ([1]; GAGE2 (Table 3)): Yes
Induced by 5Aza-dC alone? ([1]; GAGE3): Yes
Induced by 5Aza-dC alone? ([1]; GAGE4): Yes
Induced by 5Aza-dC alone? ([1]; GAGE6): Yes
Induced by 5Aza-dC alone? ([1]; GAGE7B (Table 2)): Yes
Induced by 5Aza-dC alone? ([1]; GAGE7B (Table 3)): No
Induced by 5Aza-dC alone? ([1]; GAS1): No
Induced by 5Aza-dC alone? ([1]; H1 historic family, member 2 (BC002649)): No
Induced by 5Aza-dC alone? ([1]; HEP27): No
Induced by 5Aza-dC alone? ([1]; HMOX1): No
Induced by 5Aza-dC alone? ([1]; HPSE): No
Induced by 5Aza-dC alone? ([1]; HSPA1A): No
Induced by 5Aza-dC alone? ([1]; ID2): No
Induced by 5Aza-dC alone? ([1]; ING1): No
Induced by 5Aza-dC alone? ([1]; ITM3): No
Induced by 5Aza-dC alone? ([1]; KLK12): Yes
Induced by 5Aza-dC alone? ([1]; KRT17): No
Induced by 5Aza-dC alone? ([1]; LHX2): Yes
Induced by 5Aza-dC alone? ([1]; LIPC): Yes
Induced by 5Aza-dC alone? ([1]; MAGE1): Yes
Induced by 5Aza-dC alone? ([1]; MAGEC1): No
Induced by 5Aza-dC alone? ([1]; MBD1): No
Induced by 5Aza-dC alone? ([1]; MLH1): No
Induced by 5Aza-dC alone? ([1]; MMP1): No
Induced by 5Aza-dC alone? ([1]; NGFR): Yes
Induced by 5Aza-dC alone? ([1]; NK4): Yes
Induced by 5Aza-dC alone? ([1]; NOTCH3): No
Induced by 5Aza-dC alone? ([1]; P-glycoprotein (mdr1)): No
Induced by 5Aza-dC alone? ([1]; PAX6): Yes
Induced by 5Aza-dC alone? ([1]; PIG11): Yes
Induced by 5Aza-dC alone? ([1]; PRG1): No
Induced by 5Aza-dC alone? ([1]; S100A2): Yes
Induced by 5Aza-dC alone? ([1]; S100P): No
Induced by 5Aza-dC alone? ([1]; SALL1): Yes
Induced by 5Aza-dC alone? ([1]; SARP2): Yes
Induced by 5Aza-dC alone? ([1]; SGCE): No
Induced by 5Aza-dC alone? ([1]; SPANXA1): No
Induced by 5Aza-dC alone? ([1]; SPANXC): No
Induced by 5Aza-dC alone? ([1]; STAT3): No
Induced by 5Aza-dC alone? ([1]; STC1): Yes
Induced by 5Aza-dC alone? ([1]; TERT): No
Induced by 5Aza-dC alone? ([1]; UCHL1): Yes
Induced by 5Aza-dC alone? ([1]; UCPH): No
Induced by 5Aza-dC alone? ([1]; ULBP2): Yes
Induced by 5Aza-dC alone? ([1]; WISP2): No
Induced by 5Aza-dC alone? ([1]; WIT-1): Yes
Induced by 5Aza-dC alone? ([1]; WNT4): Yes
Induced by 5Aza-dC alone? ([1]; XAGE-1): Yes
Induced by 5Aza-dC alone? ([1]; activity-regulated cytoskeleton-associated protein (APC)): No
transcripts specifically up-regulated by 5Aza-dC treatment in pancreatic cancers ([1]; after excluding those reactivated in HPDE): 590 transcripts
Induced by 5Aza-dC alone? ([1]; aik3): No
Induced by 5Aza-dC alone? ([1]; basic fibroblast growth factor (FGF)): No
Induced by 5Aza-dC alone? ([1]; candidate tumor suppressor gene 21 protein (AF040708)): No
Induced by 5Aza-dC alone? ([1]; connective tissue growth factor (M92934)): No
Induced by 5Aza-dC alone? ([1]; cytovillin 2 (VIL2, ezrin)): No
Induced by 5Aza-dC alone? ([1]; hemoglobin, alpha 1 (HBAI)): Yes
genes markedly up-regulated by 5Aza-dC treatment ([1]; in one or more pancreatic cancer cell lines but not in HPDE): 475 genes
Induced by 5Aza-dC alone? ([1]; interleukin 8): No
Induced by 5Aza-dC alone? ([1]; junction adhesion molecule (AF154005)): No
Induced by 5Aza-dC alone? ([1]; matrix metalloproteinase 8 (MMP3)): No
Induced by 5Aza-dC alone? ([1]; nucleotide-binding site protein 1 (AF298547)): No
Induced by 5Aza-dC alone? ([1]; period homolog 1 (PERI)): Yes
Induced by 5Aza-dC alone? ([1]; prostate differentiation factor (AF003934)): Yes
Induced by 5Aza-dC alone? ([1]; protease inhibitor 12 (neuroserpin) (SERPINU)): No
average number of transcripts induced per cell line ([1]; range 116-251 transcripts): ~200 transcripts
Induced by 5Aza-dC alone? ([1]; synovial sarcoma, X breakpoint 1 (BC001003)): Yes
Induced by 5Aza-dC alone? ([1]; synovial sarcoma, X breakpoint 2 (AF257500)): No
Induced by 5Aza-dC alone? ([1]; tissue factor pathway inhibitor-2 (L27624)): No
Induced by 5Aza-dC alone? ([1]; transketolase-like protein (X91817)): No
Fold-change after 5Aza-dC treatment ([2]; ANGPT2, AsPC1): 6.15 fold
transcripts with >5-fold increase, share of the 18462 transcripts analyzed ([2]; AsPC1): 1.2%
transcripts with substantial increase (>5-fold) in signal intensities ([2]; AsPC1, vs mock-treated): 225 transcripts
Fold-change after 5Aza-dC treatment ([2]; BARD1, AsPC1): −1.07 fold
Fold-change after 5Aza-dC treatment ([2]; BNIP3, AsPC1): 6.12 fold
Fold-change after 5Aza-dC treatment ([2]; BST2, AsPC1): 1.97 fold
Fold-change after 5Aza-dC treatment ([2]; CACNA1G, AsPC1): 1.83 fold
Fold-change after 5Aza-dC treatment ([2]; CCNE2, AsPC1): 1.48 fold
Fold-change after 5Aza-dC treatment ([2]; CDKN1A (p21), AsPC1): 2.21 fold
Fold-change after 5Aza-dC treatment ([2]; CDKN1C, AsPC1): 0.6 fold
Fold-change after 5Aza-dC treatment ([2]; CLDN5, AsPC1): 22.34 fold
Fold-change after 5Aza-dC treatment ([2]; CSF1, AsPC1): 1.12 fold
Fold-change after 5Aza-dC treatment ([2]; DR3, AsPC1): 1.47 fold
Fold-change after 5Aza-dC treatment ([2]; FOXE1, AsPC1): 3.51 fold
Fold-change after 5Aza-dC treatment ([2]; GAGE1, AsPC1): −0.54 fold
Fold-change after 5Aza-dC treatment ([2]; GAGE4, AsPC1): 15.66 fold
Fold-change after 5Aza-dC treatment ([2]; GAGE6, AsPC1): 15.59 fold
Fold-change after 5Aza-dC treatment ([2]; GAGE7, AsPC1): 14.08 fold
Fold-change after 5Aza-dC treatment ([2]; HOXA1, AsPC1): 25.8 fold
Fold-change after 5Aza-dC treatment ([2]; IGF2, AsPC1): 0.55 fold
Fold-change after 5Aza-dC treatment ([2]; IL1R1, AsPC1): 7.51 fold
Fold-change after 5Aza-dC treatment ([2]; ISG20, AsPC1): −1.12 fold
Fold-change after 5Aza-dC treatment ([2]; JPH3, AsPC1): 1.27 fold
Fold-change after 5Aza-dC treatment ([2]; KLK10, AsPC1): 1.03 fold
Fold-change after 5Aza-dC treatment ([2]; LDOC1, AsPC1): 8.99 fold
Fold-change after 5Aza-dC treatment ([2]; LHX1, AsPC1): 5.22 fold
Fold-change after 5Aza-dC treatment ([2]; MAGE1, AsPC1): 1.52 fold
Fold-change after 5Aza-dC treatment ([2]; MATN1, AsPC1): −1.44 fold
Fold-change after 5Aza-dC treatment ([2]; NEFH, AsPC1): 2.94 fold
Fold-change after 5Aza-dC treatment ([2]; NPTX2, AsPC1): 13.97 fold
Fold-change after 5Aza-dC treatment ([2]; PAX6, AsPC1): 8.94 fold
Fold-change after 5Aza-dC treatment ([2]; PDYN, AsPC1): 1.33 fold
Fold-change after 5Aza-dC treatment ([2]; PLAT, AsPC1): −1.15 fold
Fold-change after 5Aza-dC treatment ([2]; PLEK2, AsPC1): 1.37 fold
Fold-change after 5Aza-dC treatment ([2]; SARP2, AsPC1): −1.89 fold
Fold-change after 5Aza-dC treatment ([2]; SMARCA1, AsPC1): 7.89 fold
Fold-change after 5Aza-dC treatment ([2]; ST14, AsPC1): −1.21 fold
Fold-change after 5Aza-dC treatment ([2]; TIMP3, AsPC1): 11.89 fold
Fold-change after 5Aza-dC treatment ([2]; TJP2, AsPC1): −1.24 fold
Fold-change after 5Aza-dC treatment ([2]; TNF, AsPC1): −1.17 fold
Fold-change after 5Aza-dC treatment ([2]; UCHL1, AsPC1): 6.62 fold
Fold-change after 5Aza-dC treatment ([2]; WNT7A, AsPC1): 2.7 fold
Fold-change after 5Aza-dC treatment ([2]; XAGE-1, AsPC1): 28.59 fold
Fold-change after 5Aza-dC treatment ([2]; granulocytemacrophage colony-stimulating factor (M11734), AsPC1): 1.44 fold
Fold-change after 5Aza-dC treatment ([2]; interferon, alpha-inducible protein (NM_022873), AsPC1): 4.48 fold
Fold-change after 5Aza-dC treatment ([2]; p53-induced protein (PIGII), AsPC1): −1.22 fold
Fold-change after 5Aza-dC treatment ([2]; reprimo, AsPC1): 1.66 fold
Fold-change after 5Aza-dC treatment ([2]; stratifin (14-3-3 sigma), AsPC1): −1.48 fold
Fold-change after 5Aza-dC treatment ([2]; stromal antigen 3 (STAG5), AsPC1): 14.06 fold
Fold-change after 5Aza-dC treatment ([2]; testin, AsPC1): −1.23 fold
